In US20040235883A1, “Alkyl-substituted imidazopyridines for the treatment of gastrointestinal disorders” (priority 2001, published 2004):

Tested on: pentagastrin-stimulated acid secretion of the perfused rat stomach
Experiment: Secretion-inhibiting action on the perfused rat stomach (pentagastrin-stimulated acid secretion, intraduodenal administration in vivo)
Details: anesthetized CD rat, female, pentagastrin 1 μg/kg i.v. infusion
Source text: Testing of the Secretion-Inhibiting Action on the Perfused Rat Stomach
In Table A which follows, the influence of the compounds according to the invention on the pentagastrin-stimulated acid secretion of the perfused rat stomach after intraduodenal administration in vivo is shown.
The abdomen of anesthetized rats (CD rat, female, 200-250 g; 1.5 g/kg i.m. urethane) was opened after tracheotomy by a median upper abdominal incision and a PVC catheter was fixed transorally in the esophagus and another via the pylorus such that the ends of the tube just projected into the gastric lumen. The catheter leading from the pylorus led outward into the right abdominal wall through a side opening.
After thorough rinsing (about 50-100 ml), warm (37° C.) physiological NaCl solution was continuously passed through the stomach (0.5 ml/min, pH 6.8-6.9; Braun-Unita I). The pH (pH meter 632, glass electrode EA 147; φ=5 mm, Metrohm) and, by titration with a freshly prepared 0.01 N NaOH solution to pH 7 (Dosimat 665 Metrohm), the secreted HCl were determined in the effluent in each case collected at an interval of 15 minutes.
The gastric secretion was stimulated by continuous infusion of […] (=1.65 ml/h) of i.v. pentagastrin (left femoral vein) about 30 min after the end of the operation (i.e. after determination of 2 preliminary fractions). […]

Cc1nc2c3c(ccn2c1C)[C@H](C)[C@H](O)CN3 [Example 8, (7S,8S,9R)-8-Hydroxy-2,3,7-trimethyl-7,8,9,10-tetrahydroimidazo[1.2-h][1.7]naphthyridine]
Inhibition of acid secretion (%) (dose 1 μmol/kg i.d.): 93%

(7S,8S,9R)-7-Cyanomethyl-8-hydroxy-2,3-dimethyl-7,8,9,10-tetrahydroimidazo[1.2h]-[1.7]naphthyridine [Example 9]
Inhibition of acid secretion (%) (dose 0.3 μmol/kg i.d.): 52%
